{
  "source": "patent US6759422B2",
  "about": "“Ion channel modulating agents” (Neurosearch A/S, priority 1999, dated 2004)",
  "data": [
    {"biological_target": "T1, Intermediate-conductance Ca2+-activated K+ channels (IK channels), hIK (Homo sapiens, UniProt O15554)", "T1 construct": "expressed in transfected cells; host or cells: HEK293", "assay": "Whole-cell patch-clamp recording of ionic current through IK channels stably expressed in HEK293 cells", "type": "cell-based", "conditions": "1 μM test compound, baseline hIK current set to 100 (>100 activator, <100 blocker, 200 = doubling), whole-cell mode", "procedure": "In this experiment the ionic current through Intermediate-conductance Ca^2+-activated K^+ channels (IK channels) is recorded in the whole-cell mode of the patch-clamp technique.\nIntermediate-conductance Ca^2+-activated K^+ channels (IK channels) have been cloned from human placenta and stably expressed in HEK293 cells.\nHuman IK (hIK) was excised from pT3T7 (GenBank Acc. No. N56819) using EcoR I and Not I and subcloned into the mammalian expression vector pNS1Z (NeuroSearch), a custom designed derivative of pcDNA3Zeo (InVitrogen) to give the plasmid construct pNS1Z_hIK. HEK293 tissue culture cells were grown in DMEM (Dulbecco's Modified Eagle Medium) supplemented with 10% FCS (foetal calf serum) at 37° C. in 5% CO2. One day prior to transfection, 10^6 cells were plated in a cell culture T25 flask. The following day, cells were transfected using lipofection (20 μL Lipofectamin™, Life Technologies, with 2.5 μg of the plasmid pNS1Z_hIK in a total volume of 540 μL).\nThe lipofection mixture was overlaid on the cells and incubated at 37° C. for 5 hours. The cells were then rinsed with regular media and grown for 72 hours in DMEM, 10% FCS at 37° C. in 5% CO2. […]\nExperiments are carried out on a patch-clamp workstation equipped with an autosampler. […] Data are stored directly on the harddisk and analysed by the IGOR software (wavemetrics, Lake Oswego, USA)\nThe whole-cell configuration of the patch clamp technique is applied. […] Cell capacitance is electronically compensated and the resistance between the pipette and the cell interior (the series resistance, Rs) is measured and compensated for. […]\nThe extracellular (bath) solution contains (conc. in mM): 144 KCl, 0.1 CaCl2, 3 MgCl2, 10 HEPES (pH=7.4). The intracellular (pipette) solution has the following composition (conc. in mM): 144 KCl, 10 EGTA, 10 HEPES (pH=7.2) as well as CaCl2 and MgCl2 in concentrations calculated to result in a free concentration of Ca^2+ between 100 nM and 300 nM. The free concentration of Mg^2+ is calculated to be 1 mM. […]", "values": [
      {"compound": "Nc1nc2c3c(ccc2s1)CCCC3", "note": "[Compound 3, 2-amino-(5,6,7,8-tetrahydronaphto)-[1,2-d]-thiazole]", "Ionic Currents: Value determined using 1 μM of the test compound": 400},
      {"compound": "Cc1ccc2sc(N)nc2c1C", "note": "[Compound 2, 2-amino-4,5-dimethylbenzothiazole]", "Ionic Currents: Value determined using 1 μM of the test compound": 130},
      {"compound": "Nc1nc2c(Cl)c(Cl)ccc2s1", "note": "[Compound 1, 2-amino-4,5-dichlorobenzothiazole]", "Ionic Currents: Value determined using 1 μM of the test compound": 170}
    ]}
  ]
}
